Like-named read-outs stand apart in the source and are kept apart here.
Assays:
Solubility in water = type: physicochemical
[1] = test system: glucose dehydrogenase 2 (GlucDH2); assay: Determination of glucose with GlucDH2/NAD and an indicator; type: biochemical; details: 0.5 mM indicator, NAD/GlucDH2, glucose 385 μM, 100 mM phosphate buffer pH 7
Protocol: The following were mixed in a cuvette: 500 μL of 1.0 mM solution of an indicator (1-methyl-6-[(E)-2-(1,3,3-trimethyl-3H-indolium-2-yl)vinyl]quinolinium iodide trifluoromethanesulfonate) in 100 mM phosphate buffer pH 7, 500 μL of glucose dehydrogenase 2 (GlucDH2) solution (in 100 mM phosphate buffer pH 7 containing 4.0 mM NAD^+) at a concentration of 491 U/ml, 40 μL of 10 mM solution of glucose in distilled water. A UV/Vis spectrum (300-1000 nm) was recorded every 1 min for a 10 min after addition of glucose (resolution 1 nm) (FIG. 4).

[2] = Reaction of an indicator with NADH, UV/Vis of the reduced form; type: physicochemical; details: for UV/Vis reduced form, λmax after reduction with NADH: 50 mM phosphate buffer pH = 7; for UV-Vis λmax after reduction with NADH: water
Protocol: The following were mixed in a cuvette: 50 μL of 10 mM solution of an indicator (1-methyl-3-[(E)-2-(1,3,3-trimethyl-3H-indolium-2-yl)ethenyl]quinolinium iodide trifluoromethanesulfonate) in distilled water, 950 μL of 50 mM phosphate buffer pH 7, 2 μL of 10 mM NADH solution in distilled water. A UV/Vis spectrum (400-1000 nm) was recorded every 7.5 sec for a 1 min after addition of NADH (resolution 2 nm) (FIG. 1). No further color change could be measured after 52.5 sec.

[3] = Cyclic voltammetry (CV) studies of the redoxindicators; type: physicochemical; details: vs Ag/AgCl, 0.9% NaCl at pH 7, phosphate buffer, Au working electrode, scan rate 100 mVs^−1
Protocol: The CVs of the compounds synthesized in example 6-7 were recorded vs. the Ag/AgCl reference electrode in a phosphate buffer pH 7 (Table 4).
E/mV vs Ag/AgCl, 0.9% NaCl at pH 7, phosphate buffer, Au working electrode, scan rate 100 mVs^−1

[4] = Evaluation of extinction coefficient under pseudo-first-order reaction conditions; type: physicochemical; details: 535 nm, 50 mM phosphate buffer pH 7, from slope of ΔAbs vs initial NADH
Protocol: The following were mixed in a cuvette: 100 μL of 10 mM solution of 1-methyl-3-[(E)-2-(1,3,3-trimethyl-3H-indolium-2-yl)ethenyl]quinolinium iodide trifluoromethanesulfonate in distilled water, 900 μL of 50 mM phosphate buffer pH 7, 1-3 μL of 10 mM NADH in distilled water. Change in absorbance at 535 nm was recorded after 5 min, when no further color change could be measured (FIG. 3, 9).
This ε value is nine times greater than those of the reduced form of MTT (Czerlinski, G. H.; et al; Journal of Biochemical and Biophysical Methods 1988, 15, 241).

[5] = Fluorometric determination of NADH; details: 20 μM indicator, 4 μM NADH, 10 mM PIPES pH 7, excitation at 535 nm
Protocol: The following were mixed in a cuvette: 2 μL of 10 mM solution of an indicator (1-methyl-3-[(E)-2-(1,3,3-trimethyl-3H-indolium-2-yl)ethenyl]quinolinium iodide trifluoromethanesulfonate) in distilled water, 1000 μL of 10 mM PIPES buffer pH 7, 0.5-4 μL of 1 mM NADH solution in distilled water. The mixture was incubated for 30 min at room temperature. Fluorescence (550-800 nm) was recorded using excitation at 535 nm. (FIG. 10, 11).

[6] = Evaluation of the reaction rates with NADH; details: for Colour change of the solution treated with NADH: NADH (disodium salt); for Turnover rates with NADH compared with ascorbate: NADH vs ascorbate
Protocol: (§1) Two solutions of the redoxindicator 1-methyl-6-((E)-3-oxo-3-phenyl-propenyl)-quinolinium methosulfate (5.00 mg, 0.013 mmol) in 1.00 ml water were each treated with an excess of NADH (disodium salt) or sodium ascorbate, respectively. […] After a few minutes, a larger amount of an orange precipitate was obtained, probably the insoluble dihydrochinoline. […] Even after 16 h no precipitate was found.
(§2) Two solutions of the redoxindicators 1-methyl-3-[(E)-2-(1,3,3-trimethyl-3H-indolium-2-yl)ethenyl]quinolinium iodide trifluoromethanesulfonate (0.005 mmol) in 1.00 ml of 50 mM phosphate buffer pH 7 were each treated with 2 μL of 10 mM NADH (disodium salt) or sodium ascorbate solutions in distilled water, respectively. The absorbance at 535 nm was measured in relation to time (FIG. 3).

[7] = Evaluation of the reaction rates with ascorbate; details: sodium ascorbate
Protocol: as §1, §2

HEK-293 cells = assay: Cell viability testing, confocal fluorescence microscopy; type: cell-based; details: 20 μM
Protocol: Viable HEK-293 cells and 4% paraformaldehyde killed HEK-293 cells were incubated with 1-methyl-3-[(E)-2-(1,3,3-trimethyl-3H-indolium-2-yl)ethenyl]quinolinium iodide trifluoromethanesulfonate (20 μM) in 10 mM PBS pH 7 at 37 C. Confocal fluorescence microscope images were recorded at 611 nm using excitation at 561 nm. […] The resulting cells retained viability for at least 24 h.

## C[N+]1=C(/C=C/c2ccc[n+](C)c2)C(C)(C)c2ccccc21
Solubility in water
  solubility: ≥ 114 mM

## C[N+]1=C(/C=C/c2ccc3c(ccc[n+]3C)c2)C(C)(C)c2ccccc21.O=S(=O)([O-])C(F)(F)F.[I-] [drawing 35, 1-methyl-6-[(E)-2-(1,3,3-trimethyl-3H-indolium-2-yl)vinyl]quinolinium iodide trifluoromethanesulfonate]
Solubility in water
  solubility: ≥ 15 mM
[1]
  Absorbance λmax after adding glucose: 516 nm
[2]
  UV/Vis reduced form, λmax after reduction with NADH: 517 nm

## C[N+]1=C(/C=C/c2cccc3c2ncc[n+]3C)C(C)(C)c2ccccc21.O=S(=O)([O-])C(F)(F)F.[I-]
Solubility in water
  solubility: ≥ 9 mM
[2]
  UV-Vis λmax after reduction with NADH: 535 nm

## C[N+]1=C(/C=C/c2cccc3c2nc2ccccc2[n+]3C)C(C)(C)c2ccccc21.O=S(=O)([O-])C(F)(F)F.[I-]
Solubility in water
  solubility: ≥ 4 mM

## C[N+]1=C(/C=C/c2ccc3c(c2)nc2ccccc2[n+]3C)C(C)(C)c2ccccc21.O=S(=O)([O-])C(F)(F)F.[I-]
[2]
  UV-Vis λmax after reduction with NADH: LC-MS m/z 379.3 (M^+) HRMS m/z 378.1970 ([M − H]^+) UV-Vis (water) after reduction with NADH: λmax 740 nm;

## C[N+]1=C(/C=C/c2cc3ccccc3[n+](C)c2)C(C)(C)c2ccccc21.O=S(=O)([O-])C(F)(F)F.[I-] [drawing 50]
[3]
  Reduction potential: −534 mV

## CC[n+]1cc(/C=C/C2=[N+](C)c3ccccc3C2(C)C)cc2ccccc21
Solubility in water
  solubility: ≥ 4 mM

## C[N+]1=C(/C=C/c2ccc[n+](C)c2)C(C)(C)c2ccccc21.O=S(=O)([O-])C(F)(F)F.[I-]
[3]
  Reduction potential: −564 mV

## C[N+]1=C(/C=C/c2c[n+](C)cc3ccccc23)C(C)(C)c2ccccc21.O=S(=O)([O-])C(F)(F)F.[I-]
[3]
  Reduction potential: −424 mV

## CCOc1cccc2c1nc1c(/C=C/C3=[N+](C)c4ccccc4C3(C)C)cccc1[n+]2C.[Cl-].[Cl-] [9-ethoxy-10-methyl-1-[(E)-2-(1,3,3-trimethyl-3H-indolium-2-yl)vinyl]phenazinium]
Solubility in water
  solubility: ≥ 7 mM

## C[N+]1=C(/C=C/c2cc3ccccc3[n+](C)c2)C(C)(C)c2ccccc21.O=S(=O)([O-])C(F)(F)F.[I-] [XXIV, 1-methyl-3-[(E)-2-(1,3,3-trimethyl-3H-indolium-2-yl)ethenyl]quinolinium iodide trifluoromethanesulfonate]
Solubility in water
  solubility: ≥ 10 mM
[4]
  Extinction coefficient ε of the reduced form: 69.3 mM⁻¹ cm⁻¹
[5]
  Fluorescence emission λmax after adding NADH: 560 nm
[6]
  Colour change of the solution treated with NADH: changed rapidly from nearly colorless to pink
  Turnover rates with NADH compared with ascorbate: much higher than with ascorbate
[7]
  Colour change of the solution treated with ascorbate: did not change color
HEK-293 cells
  Fluorescence intensity, viable vs dead HEK-293 cells: much higher in viable cells than in dead cells
HEK-293 cells; 10 mM PBS pH 7, 37 C, 611 nm, excitation 561 nm
  Fluorescence intensity in viable HEK-293 cells: fluorescence intensity was enhanced
HEK-293 cells; confocal image
  Cellular uptake in viable HEK-293 cell: showed cellular uptake
HEK-293 cells; 4% paraformaldehyde killed cells, 10 mM PBS pH 7, 37 C
  Fluorescence intensity in paraformaldehyde killed HEK-293 cells: did not show enhancement in fluorescence intensity
HEK-293 cells; viable HEK-293 cells
  Time for which treated cells retained viability: at least 24 h
[2]; 0.5 mM indicator, 20 μM NADH, 50 mM phosphate buffer pH 7
  Time after addition of NADH after which no further color change could be measured: 52.5 s
[2]
  UV/Vis reduced form, λmax after reduction with NADH: 535 nm

## CC[n+]1cc(/C=C2\CCC[N+]3=C2C(C)(C)c2ccccc23)cc2ccccc21
Solubility in water; Cl^− form
  solubility: ≥ 0.3 mM

## CC[n+]1cc(/C=C/C2=[N+](C)c3ccccc3C2(C)C)cc2ccccc21.O=S(=O)([O-])C(F)(F)F.[I-]
[3]
  Reduction potential: −524 mV

## C[N+]1=C(/C=C/c2c[n+](C)cc3ccccc23)C(C)(C)c2ccccc21
Solubility in water
  solubility: ≥ 25 mM

## C[N+]1=C(/C=C/c2ccc3c(ccc[n+]3C)c2)C(C)(C)c2ccccc21.O=S(=O)([O-])C(F)(F)F.[I-] [drawing 52]
[3]
  Reduction potential: −634 mV

## COS(=O)(=O)[O-].C[n+]1cccc2cc(/C=C/C(=O)c3ccccc3)ccc21 [MOPPQ, 1-Methyl-6-((E)-3-oxo-3-phenyl-propenyl)-quinolinium methosulfate]
[6]
  Colour change of the solution treated with NADH: changed rapidly from nearly colorless to orange
  Turnover rates with NADH compared with ascorbate: much higher than with ascorbate
[7]
  Colour change of the solution treated with ascorbate: showed only a pale orange color

## C[N+]1=C(/C=C/c2ccc(-c3ccc(/C=C/C4=[N+](C)c5ccccc5C4(C)C)c[n+]3C)[n+](C)c2)C(C)(C)c2ccccc21.O=S(=O)([O-])C(F)(F)F.O=S(=O)([O-])C(F)(F)F.[I-].[I-]
Solubility in water
  solubility: ≥ 15 mM

## CC[n+]1cc(/C=C/C2=[N+](C)c3ccccc3C2(C)C)c2ccccc2c1.O=S(=O)([O-])C(F)(F)F.[I-]
[3]
  Reduction potential: −454 mV

From patent US10060907B2, “Redoxindicators” (priority 2014, dated 2018)
